Test results taken from patent US12378256B2, “Heterocyclic compound” (Takeda Pharmaceutical Company Limited, priority 2017, dated 2025).

What was measured:
[1] = molecular target: T1, human M1 receptor (hCHRM1) (Homo sapiens, UniProt P11229); experiment: Measurement of M1 receptor positive allosteric modulator (M1PAM) activity, calcium fluorescence with acetylcholine at EC20; type: cell-based; conditions: for activity (%) at 10 μM: 10 μM test compound, 100% = 1 μM acetylcholine, 0% = DMSO; for EC50: CHO-K1 cells expressing hCHRM1, acetylcholine at EC20 (final 0.8-1.0 nM), read-out: IP value (inflection point in the concentration-dependent curve)
T1 construct: expressed in transfected cells; host or cells: CHO-K1
T1 sequence (P11229 1-460): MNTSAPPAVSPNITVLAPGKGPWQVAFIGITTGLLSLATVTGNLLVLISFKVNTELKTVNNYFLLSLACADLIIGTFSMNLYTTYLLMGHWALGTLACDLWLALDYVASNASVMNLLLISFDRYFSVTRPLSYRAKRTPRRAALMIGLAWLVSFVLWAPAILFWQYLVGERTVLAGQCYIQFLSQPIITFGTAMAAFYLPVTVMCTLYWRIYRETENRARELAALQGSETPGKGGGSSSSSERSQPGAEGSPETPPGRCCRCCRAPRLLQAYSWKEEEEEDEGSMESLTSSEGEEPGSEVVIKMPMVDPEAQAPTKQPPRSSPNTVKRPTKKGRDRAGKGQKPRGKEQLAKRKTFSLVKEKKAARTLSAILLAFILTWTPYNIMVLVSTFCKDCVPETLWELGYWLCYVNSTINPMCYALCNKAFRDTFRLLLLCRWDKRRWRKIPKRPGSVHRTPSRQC

MDR1 = molecular target: T2, MDR1 (Homo sapiens, UniProt P08183); experiment: MDR1 membrane permeability test; type: in vitro ADME; conditions: pH 7.4, efflux ratio (ER), human MDR1-expressing LLC-PK1 cells, 37° C., read-out: MDR1 substrate screening 1 μM (MDRSUB1)/Ratio (NUMBER)
T2 construct: expressed in transfected cells; host or cells: LLC-PK1 (porcine kidney cells)
Description: MDR1 Membrane Permeability Test
When MDR1 is expressed in excess in LLC-PK1 cell, which is a polar cell, MDR1 is localized in apical membrane (A), thus promoting transcellular transport from the basement membrane side (B) toward direction A. When a ratio to the transcellular transport in the opposite direction is taken and a ratio to a control cell in which a mock vector has been introduced is further taken, an efflux ratio of MDR1 to simple diffusion (corrected efflux ratio) is calculated. Similarly, when a brain/plasma concentration ratio in Mdr1(−/−) mouse is divided by a brain/plasma concentration ratio in wild-type mouse, an efflux ratio of Mdr1 to simple diffusion in blood-brain barrier (BBB) (Kp, brain ratio, higher value means lower central nervous system permeability) is calculated. Adachi Y. et al. (Reference 1) has reported a positive correlation between corrected efflux ratio and Kp, brain ratio (FIG. 5(C)), and efflux ratio in MDR1 expressing cell and Kp, brain ratio (FIG. 5(B)).
To confirm the central nervous system permeability of the compounds of the present invention, a MDR1 membrane permeability test was performed by the following method.
Digoxin and lucifer yellow (LY) were purchased from Sigma-Aldrich, Diclofenac, colchicine and alprenolol were purchased from Wako Pure Chemical Industries, Ltd., and other reagents used were commercially available products of special grade.
Human MDR1-expressing LLC-PK1 cells were cultured according to the report of Takeuchi et al. (Reference 2). Human MDR1-expressing LLC-PK1 cells were cultured in 10% fetal bovine serum (Invitrogen), 500 μg/ml G418 (Invitrogen), 150 ng/ml colchicine-containing M199 medium (Invitrogen) under 5% CO2 conditions at 37° C.
Transcellular transport was performed according to the report of Sugimoto et al. (Reference 3). The cells were cultured for 3 days on HTS Transwell (registered trademark) 96 well permeable support (pore size 0.4 μm, 0.143 cm^2 surface area, Corning Life Sciences) having polyethylene terephthalate membrane on which the cells had been seeded at 3.45×10^4 cells/well. After preincubation in M199 medium (containing 10 mmol/L HEPES, 1% BSA, pH 7.4) for 30 min, a drug solution (10 μmol/L digoxin, 200 μmol/L LY, […]) dissolved in M199 medium was added to the apical side or basolateral side of the Transwell by 75 or 250 μL each and the cells were cultured under 5% CO2 conditions at 37° C. After 1 hr, the sample was collected from the side opposite to the side where the drug solution was added, and the concentration of the test compound was measured by LC-MS/MS. As an internal standard substance, 100 ng/mL alprenolol and diclofenac were used. The analysis conditions were as follows. • LC: UFLC LC-20 (Shimadzu) • MS/MS: API4000 (AB Sciex Instruments) • LC condition: gradient method
[formula] • Amount: amount of transported digoxin/well • Area: surface area of cell monolayer (0.143 cm^2) • C0: concentration of drug solution added • Time: incubation time

T2 sequence (P08183 whole entry): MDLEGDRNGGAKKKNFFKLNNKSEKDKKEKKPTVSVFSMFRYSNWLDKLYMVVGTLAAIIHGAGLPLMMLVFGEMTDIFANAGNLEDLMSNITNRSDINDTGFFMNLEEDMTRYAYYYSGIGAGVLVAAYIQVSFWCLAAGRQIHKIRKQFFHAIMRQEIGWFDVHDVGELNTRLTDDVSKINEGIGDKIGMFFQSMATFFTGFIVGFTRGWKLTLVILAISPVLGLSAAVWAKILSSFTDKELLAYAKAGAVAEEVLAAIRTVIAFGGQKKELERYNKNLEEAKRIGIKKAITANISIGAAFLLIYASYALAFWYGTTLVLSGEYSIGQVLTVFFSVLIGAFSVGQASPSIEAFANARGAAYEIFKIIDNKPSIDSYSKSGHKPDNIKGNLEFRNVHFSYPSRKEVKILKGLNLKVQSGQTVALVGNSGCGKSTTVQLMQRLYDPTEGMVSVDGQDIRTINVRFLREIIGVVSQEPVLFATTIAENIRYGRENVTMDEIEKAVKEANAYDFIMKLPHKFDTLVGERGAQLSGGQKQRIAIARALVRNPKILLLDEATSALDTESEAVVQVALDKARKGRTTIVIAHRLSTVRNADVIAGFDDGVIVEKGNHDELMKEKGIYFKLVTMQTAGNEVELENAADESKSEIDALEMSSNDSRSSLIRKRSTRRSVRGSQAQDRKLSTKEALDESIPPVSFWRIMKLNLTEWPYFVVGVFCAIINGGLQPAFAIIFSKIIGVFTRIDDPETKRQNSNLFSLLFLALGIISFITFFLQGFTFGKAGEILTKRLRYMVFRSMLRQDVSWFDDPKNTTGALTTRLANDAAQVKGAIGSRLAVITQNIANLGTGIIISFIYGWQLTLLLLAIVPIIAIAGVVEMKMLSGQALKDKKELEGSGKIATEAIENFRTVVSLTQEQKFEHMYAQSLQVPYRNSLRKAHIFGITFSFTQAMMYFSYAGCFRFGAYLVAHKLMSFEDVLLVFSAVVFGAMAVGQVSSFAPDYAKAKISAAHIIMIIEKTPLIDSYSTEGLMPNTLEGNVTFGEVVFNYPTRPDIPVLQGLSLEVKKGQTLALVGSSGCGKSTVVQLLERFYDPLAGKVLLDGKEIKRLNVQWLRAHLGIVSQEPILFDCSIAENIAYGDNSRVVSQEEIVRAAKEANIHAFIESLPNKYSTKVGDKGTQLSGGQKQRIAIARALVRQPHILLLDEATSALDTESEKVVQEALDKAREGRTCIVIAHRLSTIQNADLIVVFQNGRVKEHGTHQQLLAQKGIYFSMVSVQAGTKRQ

| activity (%) at 10 μM [1] [%] | EC50 [1] [nM] | efflux ratio at 1 h, 1 μM (MDR1) | Structure (SMILES) |
| --- | --- | --- | --- |
| 107 | 0.63 | 6.5 | Cn1cc(-c2ccc(C(F)c3cc(C(=O)N[C@H]4CCOC[C@@H]4O)nc4ccoc34)cc2)nn1 (single isomer, unassigned) [Example 55, 1,5-anhydro-2,3-dideoxy-3-(((7-(fluoro(4-(1-methyl-1H-1,2,3-triazol-4-yl)phenyl)methyl)furo[3,2-b]pyridin-5-yl)carbonyl)amino)-L-threo-pentitol] |
| 98 | 0.88 | 4.8 | Cn1cc(-c2ccc(Cc3cc(C(=O)N[C@H]4CCOC[C@@H]4O)nc4ccoc34)cc2)nn1 [Example 20, 1,5-anhydro-2,3-dideoxy-3-(((7-(4-(1-methyl-1H-1,2,3-triazol-4-yl)benzyl)furo[3,2-b]pyridin-5-yl)carbonyl)amino)-L-threo-pentitol] |
| 106 | 1.7 | 2.6 | O=C(N[C@H]1CCOC[C@@H]1O)c1cc(Cc2ccc(-n3cccn3)cc2)c2c(n1)CCO2 [Example 22, 1,5-anhydro-2,3-dideoxy-3-(((7-(4-(1H-pyrazol-1-yl)benzyl)-2,3-dihydrofuro[3,2-b]pyridin-5-yl)carbonyl)amino)-L-threo-pentitol] |
| 101 | 1.4 | 11 | Cn1cc(-c2ccc(Cc3cc(C(=O)N[C@H]4CCOC[C@@H]4O)nc4c3OCC4)cc2)nn1 [Example 31, 1,5-anhydro-2,3-dideoxy-3-(((7-(4-(1-methyl-1H-1,2,3-triazol-4-yl)benzyl)-2,3-dihydrofuro[3,2-b]pyridin-5-yl)carbonyl)amino)-L-threo-pentitol] |
| 96 | 1.5 | 9.1 | Cn1cc(-c2ccc(Cc3cc(C(=O)N[C@H]4CCOC[C@@H]4O)nc4ccoc34)cn2)cn1 [Example 36, 1,5-anhydro-2,3-dideoxy-3-(((7-((6-(1-methyl-1H-pyrazol-4-yl)pyridin-3-yl)methyl)furo[3,2-b]pyridin-5-yl)carbonyl)amino)-L-threo-pentitol] |
| 105 | 1.5 | 5.5 | Cn1cc(-c2ccc(Cc3cc(C(=O)N[C@H]4CCOC[C@@H]4O)nc4c3OCC4)cc2)cn1 [Example 44, 1,5-anhydro-2,3-dideoxy-3-(((7-(4-(1-methyl-1H-pyrazol-4-yl)benzyl)-2,3-dihydrofuro[3,2-b]pyridin-5-yl)carbonyl)amino)-L-threo-pentitol] |
| 108 | 1.5 | 11 | Cn1cnc(-c2ccc(Cc3cc(C(=O)N[C@H]4CCOC[C@@H]4O)nc4c3OCC4)cc2)c1 [Example 74, 1,5-anhydro-2,3-dideoxy-3-(((7-(4-(1-methyl-1H-imidazol-4-yl)benzyl)-2,3-dihydrofuro[3,2-b]pyridin-5-yl)carbonyl)amino)-L-threo-pentitol] |
| 109 | 3.5 | 35 | COCCNC(=O)c1ccc(Cc2cc(C(=O)N[C@H]3CCOC[C@@H]3O)nc3c2OCC3)cc1F [Example 76, 1,5-anhydro-2,3-dideoxy-3-(((7-(3-fluoro-4-((2-methoxyethyl)carbamoyl)benzyl)-2,3-dihydrofuro[3,2-b]pyridin-5-yl)carbonyl)amino)-L-threo-pentitol] |
| 108 | 3.2 | 25 | O=C(N[C@H]1CCOC[C@@H]1O)c1cc(Cc2ccc(C(=O)NC[C@@H]3CCCO3)c(F)c2)c2c(n1)CCO2 [Example 77, 1,5-anhydro-2,3-dideoxy-3-(((7-(3-fluoro-4-(((2S)-tetrahydrofuran-2-ylmethyl)carbamoyl)benzyl)-2,3-dihydrofuro[3,2-b]pyridin-5-yl)carbonyl)amino)-L-threo-pentitol] |
| 107 | 2.7 | 20 | O=C(N[C@H]1CCOC[C@@H]1O)c1cc(Cc2ccc(C(=O)NC[C@@H]3CCCO3)c(F)c2)c2occc2n1 [Example 102, 1,5-anhydro-2,3-dideoxy-3-(((7-(3-fluoro-4-(((2S)-tetrahydrofuran-2-ylmethyl)carbamoyl)benzyl)furo[3,2-b]pyridin-5-yl)carbonyl)amino)-L-threo-pentitol] |
| 107 | 2.4 | 10 | COCCNC(=O)c1ccc(Cc2cc(C(=O)N[C@H]3CCOC[C@@H]3O)nc3ccoc23)cc1F [Example 109, 1,5-anhydro-2,3-dideoxy-3-(((7-(3-fluoro-4-((2-methoxyethyl)carbamoyl)benzyl)furo[3,2-b]pyridin-5-yl)carbonyl)amino)-L-threo-pentitol] |
